# Laboratory results as given in article PMC8819291, “Adaptively evolved human oral actinomyces‐sourced defensins show therapeutic potential” (EMBO Molecular Medicine, 2021).
# Read-outs that look alike come from different tables or passages of the source. Where a SMILES comes first, the peptide text is derived from it. Bridges are numbered along the chain shown (N, C = ends).
# Assays:
# SP D39 = experiment: Mouse lung infection model
# Protocol: To this end, ICR female mice (30 g each mouse; 9–10 weeks of age) were anesthetized with 1.25% 2,2,2‐Tribromoethanol (Avertin) (Macklin, Shanghai, China) and hung by their front teeth on a steel wire. Then, they were inoculated intranasally with 10–20 µl bacterial suspension of SP D39 of fresh overnight culture (1.5 × 10^6 CFU per mouse) and then were removed from the wire to their cages. A control group of untreated mice was included. […] Mice were treated with penicillin as a positive control. At 48 h post‐infection, the mice were sacrificed and lungs removed and homogenized in 0.9% saline. Colony counts from lung homogenates were determined and the total number of colonies/lungs per mouse was calculated. Schematic representation is provided in Appendix Fig S16B.
# SM membrane = experiment: Membrane permeability assay (propidium iodide); format: cell-based, Streptococcus mutans; settings: 10 × C L; 5 × 10^5 cells in PBS pH 7.3, 1 μM PI
# Protocol: Fluorescence was measured with the F‐4500 FL spectrophotometer (Hitachi High‐Technology Company, Japan).
# A549 cells = experiment: Peptide-induced IL-8 release (ELISA); format: cell-based, human; settings: 24 h
# Protocol: A549 and HL‐60 cells were purchased from the Cell Resource Center of the Chinese Academy of Medical Sciences (Beijing, China). They were tested for mycoplasma contamination with the Mycoplasma Detection Kit (Solarbio, China) and only negative cultures were used in our experiments. The cells were cultured in complete Dulbecco’s Modified Eagle Medium (DMEM) supplemented with 10% fetal bovine serum (FBS), penicillin (100 units/ml), and streptomycin ([…]) at 37°C in 5% CO2. The culture medium was changed every 2 days. Cells were passaged every 4–5 days with 0.25% trypsin (Gibco, USA). For enzyme‐linked immunosorbent assay (ELISA) (Hara et al, [2008]), A549 or HL‐60 cells were seeded in six‐well plates at a density of 1 × 10^5 cells/well and were incubated at 37°C in 5% CO2 overnight. Medium was aspirated and replaced with fresh complete DMEM supplemented with 10% FBS or serum‐free medium, both containing different concentrations of polypeptides for 24 h. Then, the supernatants were harvested for quantification of the IL‐8 amount in A549 by the Human CXCL8/IL‐8 Quantikine ELISA Kit (R&D Systems Inc., Minneapolis, MN, USA) and the MCP‐1 amount in HL‐60 by the Human MCP‐1 ELISA Kit (Boster Biological Technology Co., Ltd, Wuhan, China) as per the manufactures’ instructions.
# gram‐positive bacteria = experiment: Inhibition-zone assay, groups of strains; format: cell-based
# From the text: Bacterial media used here included: Luria‐Bertani (LB) medium, THY medium (30 g Todd Hewitt broth and 5 g Yeast extract per liter), and tryptic soy broth (TSB) (Oxoid, Basingstoke, UK); Broth medium and brain–heart infusion (BHI) medium (Beijing Landbridge technology Limited by Share Ltd., Beijing, China); Potato dextrose (PD) medium (self‐prepared).
# In brief, an overnight bacterial culture from a single colony was inoculated into fresh medium and grew to late log‐phase. A 10‐μl aliquot of each culture was diluted in 6‐ml pre‐heated medium containing 0.8% agar. The mixture was spread on a 9‐cm Petri dish, giving a depth of 1 mm. After settling, 3‐mm wells were punched in the plate and then 2‐μl peptide samples of different concentrations were added to each well. The agar plates were incubated overnight at indicated temperatures (Table EV4). A lethal concentration (C L ) was calculated from a plot of d^2 against log n, where d is the diameter (in cm) and n is the amount of sample applied in the well (in nmol). The plot is linear, and thus C L can be calculated from the slope (k) and the intercept (m) of this plot.
# [1] = Bioaffinity ESI-MS with UMP; format: binding, Staphylococcus aureus; settings: 25 mM ammonium acetate (pH5.2)
# Protocol: All components for interactions were dissolved in 25 mM ammonium acetate (pH5.2). Electrospray spectra were recorded with Waters SynaptG2‐Si mass spectrometer (Waters, Manchester, UK) and measurements were performed with positive ESI in resolution mode. Ions were scanned in a mass range of 500–2,000 m/z with the following conditions: the capillary voltage at 1,500 V; the cone voltage at 40 V; the source block temperature at 30°C. Spectra were recorded and processed by the software Masslynx4.1 (Waters, Manchester, UK).
# salmon sperm DNA = settings: 1.0 nmol AMSIN + salmon sperm DNA 6.6 mg/ml
# Protocol: The rationality behind this experiment is that if a reduction in the inhibition‐zone size in the presence of DNA, it would indicate that the peptide binding to the DNA causes the loss of antibacterial activity. […] Inhibition zones were recorded and compared with the control without the DNA.
# [2] = test system: SSAN (Streptococcus sanguinis); experiment: Analysis of lysis in liquid culture; format: cell-based; settings: culture at OD600 of 0.2, 5–10 μM AMSIN, 24 h
smiles,measurement,setting,value
"CC[C@H](C)[C@@H]1NC(=O)[C@H](CCCCN)NC(=O)CNC(=O)[C@H](CCCNC(=N)N)NC(=O)[C@@H]2CSSC[C@H](NC(=O)CNC(=O)[C@H](Cc3ccccc3)NC(=O)CN)C(=O)N3CCC[C@H]3C(=O)N[C@@H](Cc3c[nH]c4ccccc34)C(=O)N[C@@H](CC(N)=O)C(=O)N[C@@H](C)C(=O)N[C@@H](Cc3ccc(O)cc3)C(=O)N[C@@H](CCC(=O)O)C(=O)N[C@H]3CSSC[C@H](NC(=O)[C@H]([C@@H](C)O)NC(=O)[C@H](CCC(N)=O)NC(=O)[C@H](CCCNC(=N)N)NC1=O)C(=O)N[C@@H](Cc1c[nH]cn1)C(=O)N[C@H](C(=O)N[C@@H](Cc1ccc(O)cc1)C(=O)O)CSSC[C@H](NC(=O)[C@H](Cc1c[nH]cn1)NC(=O)[C@H](CCCNC(=N)N)NC(=O)[C@H](CC(=O)O)NC3=O)C(=O)N[C@@H](C(C)C)C(=O)N[C@@H](CO)C(=O)N[C@@H](CCCCN)C(=O)NCC(=O)N[C@@H](Cc1ccc(O)cc1)C(=O)N[C@@H]([C@@H](C)O)C(=O)NCC(=O)NCC(=O)N[C@@H](CC(N)=O)C(=O)N2 [AMSIN] (H-GFGCPWNAYECDRHCVSKGYTGGNCRGKIRQTCHCY-OH; disulfide 4-25, 11-33, 15-35; N-terminus and C-terminus assumed)",Log10 (CFU per lung),"SP D39; 8.35 mg/kg i.m. 24 h after intranasal SP D39, lungs at 48 h post‐infection, animal 1",3.3 Log10 (CFU per lung)
same,Log10 (CFU per lung),"SP D39; 8.35 mg/kg i.m., animal 2",3.48 Log10 (CFU per lung)
same,Log10 (CFU per lung),"SP D39; 8.35 mg/kg i.m., animal 3",3.3 Log10 (CFU per lung)
same,Log10 (CFU per lung),"SP D39; 8.35 mg/kg i.m., animal 4",3 Log10 (CFU per lung)
same,Log10 (CFU per lung),"SP D39; 8.35 mg/kg i.m., animal 5",3.78 Log10 (CFU per lung)
same,Log10 (CFU per lung),"SP D39; 16.7 mg/kg i.m., animal 1",3.89 Log10 (CFU per lung)
same,Log10 (CFU per lung),"SP D39; 16.7 mg/kg i.m., animal 2",1.48 Log10 (CFU per lung)
same,Log10 (CFU per lung),"SP D39; 16.7 mg/kg i.m., animal 3",1 Log10 (CFU per lung)
same,Log10 (CFU per lung),"SP D39; 16.7 mg/kg i.m., animal 4",4.2 Log10 (CFU per lung)
same,Log10 (CFU per lung),"SP D39; 16.7 mg/kg i.m., animal 5",1.6 Log10 (CFU per lung)
same,Log10 (CFU per lung),"SP D39; 33 mg/kg i.m., animal 1",1 Log10 (CFU per lung)
same,Log10 (CFU per lung),"SP D39; 33 mg/kg i.m., animal 2",1.3 Log10 (CFU per lung)
same,Log10 (CFU per lung),"SP D39; 33 mg/kg i.m., animal 3",1 Log10 (CFU per lung)
same,Log10 (CFU per lung),"SP D39; 33 mg/kg i.m., animal 4",1.3 Log10 (CFU per lung)
same,Log10 (CFU per lung),"SP D39; 33 mg/kg i.m., animal 5",1.48 Log10 (CFU per lung)
same,Reduction of CFU in lungs,"SP D39; different doses (8.35, 16.7, 33 mg per kg i.m.)",4.6–6.7 log10
same,Toxicity of administration route in the model,SP D39; intramuscular injection (i.m.),no obvious toxicity
same,Effect on bacterial membrane integrity (propidium iodide fluorescence),SM membrane,did not impair the integrity of bacterial membrane
same,IL-8,"A549 cells; FBS-containing medium, 25 μg/mL, replicate 1",93 pg/mL
same,IL-8,"A549 cells; FBS-containing medium, 25 μg/mL, replicate 2",101 pg/mL
same,IL-8,"A549 cells; FBS-containing medium, 25 μg/mL, replicate 3",99 pg/mL
same,IL-8,"A549 cells; FBS-containing medium, 50 μg/mL, replicate 1",116 pg/mL
same,IL-8,"A549 cells; FBS-containing medium, 50 μg/mL, replicate 2",121 pg/mL
same,IL-8,"A549 cells; FBS-containing medium, 50 μg/mL, replicate 3",122 pg/mL
same,IL-8,"A549 cells; FBS-containing medium, 100 μg/mL, replicate 1",111 pg/mL
same,IL-8,"A549 cells; FBS-containing medium, 100 μg/mL, replicate 2",103 pg/mL
same,IL-8,"A549 cells; FBS-containing medium, 100 μg/mL, replicate 3",106 pg/mL
same,IL-8,"A549 cells; Serum-Free medium, 25 μg/mL, replicate 1",51 pg/mL
same,IL-8,"A549 cells; Serum-Free medium, 25 μg/mL, replicate 2",40 pg/mL
same,IL-8,"A549 cells; Serum-Free medium, 25 μg/mL, replicate 3",42 pg/mL
same,IL-8,"A549 cells; Serum-Free medium, 50 μg/mL, replicate 1",40 pg/mL
same,IL-8,"A549 cells; Serum-Free medium, 50 μg/mL, replicate 2",48 pg/mL
same,IL-8,"A549 cells; Serum-Free medium, 50 μg/mL, replicate 3",42 pg/mL
same,IL-8,"A549 cells; Serum-Free medium, 100 μg/mL, replicate 1",67 pg/mL
same,IL-8,"A549 cells; Serum-Free medium, 100 μg/mL, replicate 2",78 pg/mL
same,IL-8,"A549 cells; Serum-Free medium, 100 μg/mL, replicate 3",67 pg/mL
same,Lethal concentrations (C L),"gram‐positive bacteria; SP (strains D39, R6, ST556, and TIGR4)",about 0.10 μM
same,C L,"gram‐positive bacteria; three oral Streptococcus bacteria (S. mutans, S. salivarius, and S. sanguinis)",0.5 to 1.4 µM
same,Non-covalent complex with UMP by ESI-MS,[1],quadruply protonated complex
same,Inhibition zone,salmon sperm DNA; replicate 1,9.5 mm
same,Inhibition zone,salmon sperm DNA; replicate 2,10 mm
same,Inhibition zone,salmon sperm DNA; replicate 3,9.5 mm
same,Lysis of bacteria,[2],lytic effect
